# Source: patent publication US7915405B2, “2,4-disubstituted-5-aminocarbonyl-1,3-thiazole derivatives for therapeutic agent of antiinflammatory disease, method thereof for preparation, therapeutic agent for antiinflammatory disease induced by SPC activity containing the same” (Korea Research Institute of Chemical Technology, priority 2008, dated 2011)
# Assays:
# [1] = test system: NIH 3T3 cells; experiment: Control of cellular division and proliferation induced by SPC ([3H]-thimidine incorporation); type: cell-based
# Procedure: Treatment of cells with sphingosylphosphorylcholine (SPC) can induce excessive cellular division and proliferation, thus causing pathological skin conditions [Desai, Biochem. Biophys. […] Accordingly, the compounds prepared in the above Examples were tested for an effect on cellular division and proliferation induced by SPC.
# First, 1×10^5 (usually 1×10^4˜10^5) NIH 3T3 cells (American Type Culture Collection, Manassas, Va., USA) were dispensed and cultured on a culture plate, and then cultured in RPMI medium containing no fetal bovine serum for 24 hours to achieve serum starvation. The cells were treated with the compounds prepared in the above Examples, and FTY720, a sphingosine-1-phosphate (S1P) agonist, at concentrations of 0.001 μM, 0.01 μM, 0.1 μM and 1 μM, and were incubated for 30 minutes. Then, SPC (Biomol, Plymouth Meeting, Pa., USA) was added thereto at a concentration of 7 μM, and the cells were incubated at 37° C. for 24 hours. […] Proliferation %=(group treated with test drug−group not treated with SPC)/(group treated with SPC alone−group not treated with SPC)×100 [Equation 1]
# [2] = test system: human umbilical vein endothelial cells (HUVECs); experiment: Inhibitory effect on chemotactic cell migration induced by SPC (Boyden chamber analysis); type: cell-based; conditions: HUVEC
# Source text: Recently, it was reported that SPC plays an important role in chemotactic cell migration, similar to vascular endothelial cell growth (VEGF) [Boguslawski et al, Biochem Biophys Res Commun., 2000, 272, 603-609]. The phenomenon in which cells migrate in a living body by special cytokines or kemokines is a key step in a process, such as migration of immune cells to sites of inflammation, or angiogenesis caused by endothelial cells. Accordingly, the effect of the compounds prepared in the above Examples on chemotactic cell migration induced by SPC was tested by Boyden chamber analysis.
# First, a 25×80 mm polycarbonate membrane (Neuro Probe, Inc.) having 8 μm pores was overnight coated by immersion in a solution containing 0.01% gelatin and 0.1% acetic acid solution and was naturally dried at room temperature.
# Meanwhile, human umbilical vein endothelial cells (HUVECs) cultured in complete EBM-2 medium containing 2% fetal bovine serum were incubated in EBM-2 medium (Cambrex, Catalog No. CC-3121) containing no fetal bovine serum for 4 hours to achieve serum starvation, and then the cells were harvested with trypsin/EDTA solution. The HUVEC cells were suspended in EBM-2 medium containing 0.1% fetal bovine serum. Then, the cells were dispensed in a silicon-coated Eppendorf tube, the compound of Example 1-31 as a test drug was added to the cells in amounts of 0.1, 1 and 10 μg/ml, and the cells were treated with the compound at 37° C. for 30 minutes. 27 μL of EBM-2 medium containing 10 μM SPC or EBM-2 medium containing no SPC was dispensed in each well of the lower chamber of the Boyden chamber, and a gelatin-coated membrane was placed in the lower chamber, such that the glossy surface of the membrane was faced downward. A gasket was placed on the membrane, and then the upper chamber was assembled. 5×10^4 (56 μl) HUVEC cells treated with the drug were dispensed in each well of the upper chamber and incubated in a CO2 incubator at 37° C. for 8 hours. The membrane was separated, stained with Diff-Quik dye (Sysmex Corporation), washed with deionized water, and then attached to a slide glass, such that the glossy surface was faced downward. The cells attached onto the membrane were carefully wiped with kimwipes or cotton swabs, and then each well was photographed in five fields (200× magnification), and the cells were counted. Inhibition of chemotactic cell migration was calculated according to the following equation 2, and the results are shown in Table 3 below. Inhibition %=(group treated with SPC alone−group treated with test drug)/(group treated with SPC alone−group not treated with SPC)×100 [Equation 2]
# [3] = test system: TPA-induced inflammation model; experiment: Control of inflammatory reaction in mouse TPA-induced inflammation model (ear weight and MPO activity); type: in vivo; conditions: ICR mice
# Procedure: In order to examine an inhibitory effect on inflammatory reactions, the following test was carried out using tetradecanoyl phorbol acetate (hereinafter referred to as “TPA”)-induced inflammation model.
# The TPA-induced inflammation model was a test method which has been widely used to test inflammatory reaction mechanisms and the effect of inhibitory substances [De Young L M et al., Agents and Actions, 1989, 26, 335-341]. When TPA which is a substance causing an inflammatory reaction is applied to the ear of a test subject, erythema and edema occur. Such inflammatory reactions are measurable through the increase in the activity of myeloperoxidase (MPO) which is essential for bacterial invasion into white blood cells.
# Forty 6-week-old ICR mice were prepared, and 20 μl of a TPA solution (Sigma Aldrich Korea) obtained by dissolving TPA in acetone at a concentration of 125 μg/ml was applied to the left ear of each animal. At 1 hour after the application of TPA, 20 μl of each of acetone, the compounds of Examples dissolved in acetone at a concentration of 0.3%, and hydrocortisone (Sigma Aldrich Korea) dissolved in acetone at a concentration of 0.3% was applied to the TPA-applied site, and at 6 hours after the application of TPA, it was applied again to the same site in the same amount (20 μl). At 24 hours after the application of TPA, the mice were sacrificed by cervical dislocation, and the left ear was collected in a given width and measured for weight and MPO activity. Inhibition % of inflammatory reactions was calculated according to the following equation 3, and the results are shown in Table 4 below. Inhibition %=(group treated with TPA alone−group treated with test drug)/(group treated with TPA alone−group not treated with TPA)×100 [Equation 3]
smiles,measurement,setting,value
"COc1ccccc1N1CCN(c2nc(NC(=O)C(C)(C)C)c(C(=O)N3CCCCC3)s2)CC1 [Example 1-31, N-{2-[4-(2-methoxyphenyl)-piperazin-1-yl]-5-(piperidine-1-carbonyl)thiazol-4-yl}pivalamide]",IC50,"[1]; Mus musculus, NIH3T3, serum starved, compound 0.001-1 μM 30 minutes, then SPC 7 μM, 24 hours, read-out: antagonistic effect on SPC IC50",5.42 nM
same,inhibition of cellular division and proliferation induced by SPC (in words),[1]; SPC 7 μM,dose-dependently inhibited
same,inhibition of chemotactic cell migration caused by SPC (in words),[2]; Boyden chamber,strongly inhibited
same,inhibition at 0.1 µg/mL,"[2]; Homo sapiens, 0.1 μg/ml, 10 μM SPC, 8 hours",44%
same,inhibition at 1 µg/mL,"[2]; Homo sapiens, 1 μg/ml, 10 μM SPC, 8 hours",58%
same,inhibition at 10 µg/mL,"[2]; Homo sapiens, 10 μg/ml, 10 μM SPC, 8 hours",69%
same,"Inhibition (%) of inflammatory reaction (ear edema, ear weight)","[3]; 0.3% in acetone, 20 μl on the ear at 1 hour and 6 hours after TPA, measured at 24 hours",84%
same,"inhibition of TPA-induced inflammatory reactions, ear edema and MPO activity (in words)","[3]; 0.3% topical, compared with hydrocortisone",significantly inhibited
same,Inhibition (%) (MPO inhibition),"[3]; value in brackets, 0.3% in acetone, 20 μl on the ear at 1 hour and 6 hours after TPA, MPO activity of ear at 24 hours",78%
